Read-outs that look alike come from different tables or passages of the source.
Legend:
[1] = system: HIV-2; settings: cited from earlier work
[2] = system: SIV; settings: cited from earlier work
[3] = system: HIV-1; settings: low nanomolar range; cited from earlier work
[4] = system: HIV-1; settings: cited from earlier work
[5] = cited from earlier work; for terminal half-life: humans
[6] = primates; cited from earlier work
[7] = system: HIV; settings: 12.5 mg/day to 200 mg/day (Gulick, 2002); cited from earlier work
[8] = target: HIV-1 gp41 (transmembrane subunit of the HIV-1 envelope glycoprotein) (HIV-1) (UniProt P03377); assay: cell-based or functional assay

In the case of enfuvirtide, the “activity against HIV-2” value [1] is listed as “does not inhibit”, the “activity against SIV” value [2] is listed as “does not inhibit” and the “antiviral activity in cell-cell fusion assays” value [3] is listed as 0.2 to 2 nM. For the same substance, the “activity against HIV-1” value [4] was “active against several clades of HIV-1”, the plasma half-life ([5]; clinical trials, typical dose 50 mg twice daily) was “about 1.8 hours” and the terminal half-life ([5]; 45 mg subcutaneous dose (Zhang X et al., 2002)) was 3.46 h. The terminal half-life ([5]; 180 mg subcutaneous dose (Zhang X et al., 2002)) was 4.35 h.

In the case of “WQEWEQKITALLEQAQIQQEKNEYELQKLDKWASLWEWF [T-1249]”, the “activity against HIV-2” value [1] is listed as “active”, the “activity against SIV” value [2] is listed as “active” and the “half-life / AUC compared with T-20” value [6] is listed as “twofold increased AUC”. For the same substance, the “suppression of HIV” value [7] was “dose-related suppression of HIV” and the “activity against HIV-1” value [4] was “active”.

Work on “C-terminal albumin-(GGS)4GG-T-1249 fusion protein, produced in the standard (PMT1) yeast strain (from UniProt P02768 25-609)” yielded a 50% inhibitory concentration (IC50), HIV-1 cell-cell fusion assay on Jurkat cells [8] of 10 to 100 nM.

Work on “C-terminal albumin-(GGS)4GG-T-20 fusion protein, expressed in the pmt1 gene deficient yeast strain (from UniProt P02768 25-609)” yielded a 50% inhibitory concentration, HIV-1 cell-cell fusion assay on Jurkat cells [8] of 4 to 13 nM.

Source: patent US20060241027A1, “Hiv inhibiting proteins” (priority 2002, published 2006)
